Source: patent US20230159583A1, “COMPOUND FOR TREATING GOUT, PREPARATION METHOD THEREFOR, AND USE THEREOF” (Huazhong Pharmaceutical Co., Ltd., priority 2020, published 2023)
Read-outs that look alike come from different tables or passages of the source.

Experiments:
Format in all cases: in vivo
[1] = system: ICR mice; settings: p.o.
Procedure: The experiment was designed according to the “Technical Guideline for Acute Toxicity Test of Chemical Drugs” issued by the State Food and Drug Administration in March 2005. The doses administered were 4 g/kg, 4.91 g/kg, 6.14 g/kg, 7.68 g/kg, 9.6 g/kg, 12 g/kg, and 15 g/kg (the dose could be adjusted according to the actual test results), 12 ICR mice per dose group. If the administration volume is greater than 0.5 ml, it is better to perform the drug administration in two or more times (Note: according to the national standard GB 15193.3-2014, if multiple drug administrations are required, the time interval should be 4 h to 6 h each time, and the patient should be fasted on the day before drug administration).

[2] = system: rat paw swelling induced by monosodium urate (MSU); assay: rat paw swelling model induced by monosodium urate (MSU); settings: for inhibition in vivo at 90 mg/kg / inhibition in vivo at 0.36 mg/kg / inhibition in vivo at 1.8 mg/kg / inhibition in vivo at 9 mg/kg / change in vivo at 90 mg/kg: Rattus norvegicus, po; for inhibition in vivo at 90 mg/kg / inhibition in vivo at 0.36 mg/kg / inhibition in vivo at 1.8 mg/kg / inhibition in vivo at 9 mg/kg: 1 h, read-out: Swelling inhibition rate; for inhibition in vivo at 0.36 mg/kg: dosage 0.36 mg/kg; for inhibition in vivo at 1.8 mg/kg: dosage 1.8 mg/kg; for inhibition in vivo at 9 mg/kg: dosage 9 mg/kg; for change in vivo at 90 mg/kg: read-out: Swelling degree; for Mean volume of paw after administration: 1 h after onset of inflammation (50 μL 2% MSU)
Description: Gout is a disease unique to human, and gouty arthritis is an inflammatory reaction caused by the deposition of monosodium urate (MSU) in local joint tissues. Since purine metabolism pathways in some mammals such as mice and rabbits are different from those in humans, it is impossible to construct a gouty arthritis model by the method of interfering with purine metabolism disorders, so the most direct method for causing gouty arthritis is to directly inject MSU into the joint cavity of the model animal. The model is only used for simulating local joint inflammation of gout, is suitable for observation of local arthritis symptoms, is a common method for screening anti-inflammatory effects of gout drugs at present, and has the advantages of stability, easy operation and the like. (Reference: Li Na, Hua Long, and Yuan Hui. Research progress of gout animal models [J]. Medical theory and practice, 2016(24).
The anti-gout effect of the compound prepared in the above Example was detected by using a rat paw swelling model induced by monosodium urate (MSU), and the control sample was methylprednisolone.
Experimental method: MSU was used as an inflammatory agent, injected subcutaneously into the hind paws of rats to cause paw swelling, and then the volume of the paws was measured, and the swelling rates and swelling inhibition rates of the treatment group and the control group were compared. On the day of the experiment, the volume of right hind paw (ml) of each rat was measured firstly, and then after the onset of inflammation, the volume of right hind paw was measured so that the difference of volume of paw before and after inflammation was swelling degree, and the swelling inhibition rate of paw (swelling inhibition rate %=(C−T)/C*100%); C=swelling rate of the control group %, and T=swelling rate of the treatment group) was calculated. This method is one of the commonly used methods for screening anti-inflammatory effects of gout drugs, and the model is stable and easy to operate.
(2) One week before the subcutaneous injection of MSU into the feet and soles of the rats, the rats were given different doses of the test drugs, and the drugs were given by gavage once a day, for seven consecutive days. The circumference of the right hind paw was marked and measured before the last administration, and the average value of the two measurements was taken as the standard. 1 h after the last administration, animals in other groups were given 50 μL of 2% MSU in addition to the blank control group, and the paw circumference was measured 1 h after the onset of inflammation. […]

[3] = system: carrageenan-induced mouse paw swelling; assay: carrageenan-induced mouse paw swelling model; settings: for Circumference of the paw after administration: 180 min after onset of inflammation (0.5% carrageenan); for inhibition in vivo at 0.26 mg/kg / inhibition in vivo at 13 mg/kg / inhibition in vivo at 130 mg/kg / change in vivo at 130 mg/kg: Mus musculus, po, 3 h; for inhibition in vivo at 0.26 mg/kg: dosage 0.26 mg/kg; for inhibition in vivo at 0.26 mg/kg / inhibition in vivo at 13 mg/kg / inhibition in vivo at 130 mg/kg: read-out: Swelling inhibition rate; for inhibition in vivo at 13 mg/kg: dosage 13 mg/kg; for change in vivo at 130 mg/kg: read-out: Swelling degree
Procedure: The anti-inflammatory effects of the compounds prepared in the above Examples were detected using a carrageenan-induced mouse paw swelling model, and the control sample was methylprednisolone:
Carrageenan-induced mouse paw swelling model is a classical acute inflammation model commonly used for evaluating or screening anti-inflammatory effects of drugs. When carrageenan is injected into the paw of mice, a series of reactions similar to human acute inflammation such as local capillary dilatation, increased vascular permeability, exudation and edema can be caused, so the model can be widely used in the evaluation of new drugs.
Reference for experimental method: Yang Huan, Cheng Xiao, Wang Yuehua, Du Guanhua. Effects of esculin on the swelling of toes and inflammation induced by carrageenan in mice [J]. Chinese Journal of New Drugs, 2016(25):2322.
On the day of the experiment, the circumference of right hind paw (cm) of each mouse was measured firstly, and then, after the onset of inflammation, the circumference of right hind paw was measured so that the difference of the circumferences of the paws before and after inflammation was swelling degree, and the swelling inhibition rate of paw (swelling inhibition rate %=(C−T)/C*100%); C=swelling rate of the control group %, and T=swelling rate of the treatment group) was calculated.
(2) Gavage administration was performed once a day for seven consecutive days. The circumference of the right hind paw was marked and measured before the last administration, and the average value of the two measurements was taken as the standard. 30 min after the last administration, 20 μL/mice of 0.5% carrageenan was injected into the right hind ankle of the mice to induce inflammation, and the circumference of paw was measured 180 min after the onset of inflammation. […]

[4] = SD rats, 90 mg/kg by gavage once a day for seven days, 1 h after onset of inflammation
[5] = rat, MSU-induced paw swelling, dosage 90 mg/kg
[6] = SD rats, 90 mg/kg by gavage once a day for seven days
[7] = ICR mice, 130 mg/kg by gavage once a day for seven days, 180 min after onset of inflammation
[8] = ICR mice, 130 mg/kg by gavage once a day for seven days
[9] = mouse, carrageenan-induced paw swelling
[10] = mouse, carrageenan-induced paw swelling, dosage 130 mg/kg

SMILES	Mortality ([1]; 4 g/kg)	Mortality ([1]; 4.91 g/kg)	Mortality ([1]; 6.14 g/kg)	Mortality ([1]; 7.68 g/kg)	Mortality ([1]; 9.6 g/kg)	Mortality ([1]; 12 g/kg)	Mortality ([1]; 15 g/kg)	inhibition in vivo at 90 mg/kg [2, 4]	inhibition in vivo at 0.36 mg/kg ([2]; rat, MSU-induced paw swelling)	inhibition in vivo at 1.8 mg/kg ([2]; rat, MSU-induced paw swelling)	inhibition in vivo at 9 mg/kg ([2]; rat, MSU-induced paw swelling)	inhibition in vivo at 90 mg/kg [2, 5]	change in vivo at 90 mg/kg [2, 4]	Swelling value [2, 4]	Mean volume of paw after administration [2, 6]	Swelling value [3, 7]	Circumference of the paw after administration [3, 8]	inhibition in vivo at 0.26 mg/kg [3, 9]	inhibition in vivo at 13 mg/kg [3, 9]	inhibition in vivo at 130 mg/kg [3, 10]	further results
C[C@]12C=CC(=NO)C=C1CC[C@@H]1[C@@H]2[C@@H](O)C[C@@]2(C)[C@H]1CC[C@]2(O)/C(CO)=N/O [Example 3, (8S,9S,10R,11S,13S,14S,17R)-11,17-dihydroxy-17-((E)-2-hydroxy (hydroxyimino)ethyl)-10,13-dimethyl-6,7,8,9,10,11,12,13,14,15,16,17-dodecahydro-3H-cyclopentane[α]phenanthrene-3-one oxime]	0/12	0/12	0/12	0/12	0/12	0/12	1/12	80.5%	10.2%	25.2%	32.1%	82.1%	64.2%	0.77 mL	1.97 mL	0.05 cm	1.53 cm	9.12%	42.3%	78.2%	change in vivo at 130 mg/kg [3, 7]: 3.38%; inhibition in vivo at 130 mg/kg [3, 7]: 82.5%
CC(=O)OC/C(=N\O)[C@@]1(O)CC[C@H]2[C@@H]3CCC4=CC(=NO)CC[C@]4(C)[C@H]3[C@@H](O)C[C@@]21C [Example 5, (2E)-2-((8S,9S,10R,11S,13S,14S,17R)-11,17-dihydroxy-3-(hydroxyimino)-10,13-dimethyl-2,3,6,7,8,9,10,11,12,13,14,15,16,17-tetrahydro-1H-cyclopentane[α]phenanthroyl)-2-(hydroxyimino)ethyl acetate]	0/12	0/12	0/12	0/12	1/12	2/12	4/12	82.1%	23.4%	35.3%	56.3%	80.1%	59%	0.72 mL	1.94 mL	0.04 cm	1.52 cm	13.5%	56.8%	88.1%	change in vivo at 130 mg/kg [3, 7]: 2.7%; inhibition in vivo at 130 mg/kg [3, 7]: 86%
CC1(C)O[C@@H]2C[C@H]3[C@@H]4C[C@H](F)C5=CC(=NO)C=C[C@]5(C)[C@@]4(F)[C@@H](O)C[C@]3(C)[C@]2(/C(CO)=N/O)O1 [Example 8, (2S,6aS,6bR,7S,8aS,8bR,11aR,12aS,12bS)-2,6b-difluoro-7-hydroxy-8b-((E)-2-hydroxy-1-(hydroxyimino)ethyl)-6a,8a,10,10-tetramethyl-1,2,6a,6b,7,8,8a,8b,11a,12,12a,12b-dodecahydro-4H-naphtho[2′,1′:4,5]indeno[1,2-d][1,3]dioxol-4-one oxime]	0/12	0/12	0/12	0/12	0/12	0/12	1/12	91.8%	17.2%	32.1%	41.2%	93.5%	26.8%	0.33 mL	1.56 mL	0.02 cm	1.49 cm	24.5%	46.8%	93.2%	change in vivo at 130 mg/kg [3, 7]: 1.36%; inhibition in vivo at 130 mg/kg [3, 7]: 93%
C[C@@H]1C[C@H]2[C@@H]3CCC4=CC(=NO)C=C[C@]4(C)[C@H]3[C@@H](O)C[C@]2(C)[C@H]1/C(CO)=N/O [Example 10]	0/12	0/12	1/12	1/12	3/12	4/12	5/12	68.9%	9.21%	32.1%	51.2%	65.2%	102%	1.24 mL	2.45 mL	0.11 cm	1.58 cm	8.12%	30.9%	62.4%	change in vivo at 130 mg/kg [3, 7]: 7.48%; inhibition in vivo at 130 mg/kg [3, 7]: 61.3%
